Patent publication US6767725B2, “Acetyl amino acid racemase from amycolatopsis orientalis for racemizing carbamoyl amino acids” (Degussa AG, priority 2000, dated 2004)

Tests used:
[1] = system: N-acetyl amino acid racemase from Amycolatopsis orientalis subsp. lurida; assay: Detection of racemase activity of recombinant AAR (polarimetric racemization assay); assay type: biochemical; settings: substrate 25 mM, Tris/HCl 50 mM pH 8.0, cobalt chloride 6 mM, approx 150 μg purified protein, 30° C., 3 to 12 hours, polarimeter λ=365 nm
Protocol: The substrate spectrum of the N-acetyl amino acid racemase from Amycolatopsis orientalis subsp. lurida was tested using the enzyme assay described below. The assay was composed of the following: [table] Enantiomerically pure amino acid derivatives were used in the test and the formation of the corresponding racemate was monitored in the polarimeter (Perkin-Elmer 241). Incubation took place at 30° C. (heated cell) for 3 to 12 hours. The measurements were taken at a wave length of λ=365 nm.

[2] = target: T1, N-acyl amino acid racemase from A. TS-1-60 (Amycolatopsis sp, UniProt Q44244); assay: Racemase activity of the N-acyl amino acid racemase from A. TS-1-60; assay type: biochemical, Amycolatopis sp. TS-1-60; settings: N-carbamoyl-D-Met as substrate
T1 sequence (Q44244 1-368): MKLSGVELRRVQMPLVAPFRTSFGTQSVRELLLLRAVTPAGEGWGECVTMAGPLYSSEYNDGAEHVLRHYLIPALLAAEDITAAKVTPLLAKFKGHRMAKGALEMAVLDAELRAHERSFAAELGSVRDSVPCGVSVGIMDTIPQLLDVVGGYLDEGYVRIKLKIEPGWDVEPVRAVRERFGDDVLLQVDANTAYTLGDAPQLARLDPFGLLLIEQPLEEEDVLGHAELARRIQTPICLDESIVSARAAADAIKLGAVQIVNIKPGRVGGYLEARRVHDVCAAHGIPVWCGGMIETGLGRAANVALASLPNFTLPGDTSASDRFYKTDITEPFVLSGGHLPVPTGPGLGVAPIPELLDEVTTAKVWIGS
Description: The N-acyl amino acid racemase from A. TS-1-60 with N-carbamoyl-D-Met as substrate has an activity of 100 mU/mg. This specific activity is thus 35% lower than that of the racemase from A. orientalis subsp. lurida.

Molecule	Specific activity of the AAR [1] [mU/mg]	activity (specific activity) of the racemase from A. TS-1-60 [2] [mU/mg]	specific activity lower than that of the racemase from A. orientalis subsp. lurida ([2]; TS-1-60 racemase versus A. orientalis subsp. lurida racemase) [%]
CSCC[C@@H](NC(N)=O)C(=O)O [N-Carbamoyl-D-Met]	155	100	35
NC(=O)N[C@H](Cc1ccccc1)C(=O)O [N-Carbamoyl-D-Phe]	20	–	–
CC(C)C[C@H](NC(N)=O)C(=O)O [N-Carbamoyl-L-Leu]	20	–	–
CSCC[C@H](NC(N)=O)C(=O)O [N-Carbamoyl-L-Met]	118	–	–
NC(=O)N[C@@H](Cc1ccc(O)cc1)C(=O)O [N-Carbamoyl-L-Tyr]	62	–	–
CC(C)[C@H](NC(N)=O)C(=O)O [N-Carbamoyl-L-Val]	20	–	–
N-Carbamoyl-L-Abs	15	–	–
